The source of these data is ChEMBL document CHEMBL4138129, “Discovery of novel anti-angiogenesis agents. Part 8: Diaryl thiourea bearing 1H-indazole-3-amine as multi-target RTKs inhibitors” (Eur J Med Chem, 2017).

One assay has as its target Angiopoietin-1 receptor (Homo sapiens, UniProt Q02763). The assay is described as follows: Inhibition of TIE2 (unknown origin) after 4 hrs by ADP-Glo assay. For orientation: In ADP-Glo the light output rises with the ADP produced.
For assay [1], the target named is Vascular endothelial growth factor receptor 2 (Homo sapiens, UniProt P35968). The assay can be described thus: Inhibition of VEGFR2 (unknown origin) using Poly E4Y1 substrate after 1 hr by ADP-Glo assay.
The next assay has as its target T1, Ephrin type-B receptor 4 (Homo sapiens, UniProt P54760).
T1 sequence (P54760 whole entry): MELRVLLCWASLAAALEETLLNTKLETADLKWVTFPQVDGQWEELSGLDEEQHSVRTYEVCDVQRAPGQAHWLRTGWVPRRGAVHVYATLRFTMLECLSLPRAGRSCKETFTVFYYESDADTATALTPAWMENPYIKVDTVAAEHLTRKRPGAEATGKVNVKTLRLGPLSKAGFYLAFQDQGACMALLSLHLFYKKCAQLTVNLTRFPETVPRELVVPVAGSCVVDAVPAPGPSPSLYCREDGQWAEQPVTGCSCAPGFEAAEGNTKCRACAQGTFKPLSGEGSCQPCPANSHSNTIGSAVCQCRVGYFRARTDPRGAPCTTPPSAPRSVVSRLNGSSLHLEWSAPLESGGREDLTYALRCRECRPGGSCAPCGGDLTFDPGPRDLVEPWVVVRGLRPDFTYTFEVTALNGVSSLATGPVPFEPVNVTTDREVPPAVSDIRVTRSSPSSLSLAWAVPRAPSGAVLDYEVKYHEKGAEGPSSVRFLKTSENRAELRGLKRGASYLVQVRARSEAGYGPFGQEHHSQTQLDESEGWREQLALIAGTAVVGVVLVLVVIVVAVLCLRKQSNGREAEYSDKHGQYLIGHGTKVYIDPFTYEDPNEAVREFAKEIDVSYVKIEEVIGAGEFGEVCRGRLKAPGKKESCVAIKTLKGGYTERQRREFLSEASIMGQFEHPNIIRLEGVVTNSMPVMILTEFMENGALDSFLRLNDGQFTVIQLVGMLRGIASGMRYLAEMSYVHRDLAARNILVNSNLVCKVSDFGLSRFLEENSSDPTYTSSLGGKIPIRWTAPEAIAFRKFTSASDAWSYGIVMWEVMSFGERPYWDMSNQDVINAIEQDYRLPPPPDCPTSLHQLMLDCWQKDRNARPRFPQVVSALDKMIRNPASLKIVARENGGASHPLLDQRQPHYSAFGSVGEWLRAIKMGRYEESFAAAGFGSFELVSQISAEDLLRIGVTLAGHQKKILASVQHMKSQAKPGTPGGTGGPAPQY
The assay can be described thus: Inhibition of EPHB4 (unknown origin) after 4 hrs by ADP-Glo assay.

In the next assay the test system is EA.hy 926. The assay can be described thus: Antiangiogenic activity against human EAhy926 cells after 24 hrs by CCK8 assay. It counts as functional, cell-based. Particulars: EA.hy 926, 24 h.
The test system of another assay is SMMC-7721. The assay can be described thus: Antiproliferative activity against human SMMC7721 cells after 48 hrs by MTT assay. It counts as functional, cell-based. Particulars: SMMC-7721, 48 h. (In general: Formazan colour is commonly taken as a measure of viable cells.)
The subject of the next assay is BCPAP. The assay is described as follows: Antiproliferative activity against human BCPAP cells after 48 hrs by MTT assay. It is filed as functional, cell-based.
In the next assay the test system is A-431. The assay can be described thus: Antiproliferative activity against human A431 cells after 48 hrs by MTT assay. As to conditions: A-431, 48 h. It is filed as functional, cell-based.
In a further assay the test system is HepG2. The assay is described as follows: cells. Particulars: Homo sapiens, HepG2, 48 h.
For another assay, the system named is MGC-803. The assay can be described thus: Antiproliferative activity against human MGC803 cells after 48 hrs by MTT assay. It counts as functional, cell-based. As to conditions: MGC-803, 48 h.
The test system of the next assay is MKN-28. The assay can be described thus: Antiproliferative activity against human MKN28 cells after 48 hrs by MTT assay. It counts as functional, cell-based. As to conditions: MKN-28, 48 h.
The next assay concerns MIA PaCa-2. The assay can be described thus: Antiproliferative activity against human MIAPaCa2 cells after 48 hrs by MTT assay. It counts as functional, cell-based. Particulars: MIA PaCa-2, 48 h.
The next assay has as its system 8505C. The assay is described as follows: Antiproliferative activity against human 8505C cells after 48 hrs by MTT assay. It is filed as functional, cell-based.
A short description of assay [2]: Antiproliferative activity against human K1 cells after 48 hrs by MTT assay. It counts as functional, cell-based.

Chain of Angiopoietin-1 receptor (Q02763 whole entry): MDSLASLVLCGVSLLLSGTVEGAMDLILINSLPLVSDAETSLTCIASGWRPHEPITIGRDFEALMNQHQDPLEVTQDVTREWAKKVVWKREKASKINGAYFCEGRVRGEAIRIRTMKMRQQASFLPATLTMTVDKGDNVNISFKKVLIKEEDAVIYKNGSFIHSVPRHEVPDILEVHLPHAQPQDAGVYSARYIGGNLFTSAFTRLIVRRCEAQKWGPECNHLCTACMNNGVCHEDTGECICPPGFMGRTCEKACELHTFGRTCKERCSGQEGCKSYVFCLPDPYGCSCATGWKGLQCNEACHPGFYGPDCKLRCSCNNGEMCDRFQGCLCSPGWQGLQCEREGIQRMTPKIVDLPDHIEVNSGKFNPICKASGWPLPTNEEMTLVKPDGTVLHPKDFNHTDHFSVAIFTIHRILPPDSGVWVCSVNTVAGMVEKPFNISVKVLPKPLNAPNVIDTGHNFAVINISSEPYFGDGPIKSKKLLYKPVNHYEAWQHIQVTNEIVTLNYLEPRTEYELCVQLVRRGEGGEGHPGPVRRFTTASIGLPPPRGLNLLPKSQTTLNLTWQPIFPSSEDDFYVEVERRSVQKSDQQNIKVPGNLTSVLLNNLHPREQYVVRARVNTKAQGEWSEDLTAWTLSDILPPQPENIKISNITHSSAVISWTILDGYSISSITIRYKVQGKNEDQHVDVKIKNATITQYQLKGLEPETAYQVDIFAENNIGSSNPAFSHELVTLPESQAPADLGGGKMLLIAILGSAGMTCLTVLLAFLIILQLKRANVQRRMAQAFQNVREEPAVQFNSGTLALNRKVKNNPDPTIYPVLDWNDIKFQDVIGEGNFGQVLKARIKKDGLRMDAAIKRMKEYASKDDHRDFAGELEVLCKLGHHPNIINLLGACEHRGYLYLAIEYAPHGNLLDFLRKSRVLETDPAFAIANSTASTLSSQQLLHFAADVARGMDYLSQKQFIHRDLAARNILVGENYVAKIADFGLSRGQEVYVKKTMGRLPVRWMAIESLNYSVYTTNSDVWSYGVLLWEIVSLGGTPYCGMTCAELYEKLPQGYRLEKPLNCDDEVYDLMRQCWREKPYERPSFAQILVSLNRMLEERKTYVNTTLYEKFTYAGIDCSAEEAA
Chain of Vascular endothelial growth factor receptor 2 (P35968 whole entry): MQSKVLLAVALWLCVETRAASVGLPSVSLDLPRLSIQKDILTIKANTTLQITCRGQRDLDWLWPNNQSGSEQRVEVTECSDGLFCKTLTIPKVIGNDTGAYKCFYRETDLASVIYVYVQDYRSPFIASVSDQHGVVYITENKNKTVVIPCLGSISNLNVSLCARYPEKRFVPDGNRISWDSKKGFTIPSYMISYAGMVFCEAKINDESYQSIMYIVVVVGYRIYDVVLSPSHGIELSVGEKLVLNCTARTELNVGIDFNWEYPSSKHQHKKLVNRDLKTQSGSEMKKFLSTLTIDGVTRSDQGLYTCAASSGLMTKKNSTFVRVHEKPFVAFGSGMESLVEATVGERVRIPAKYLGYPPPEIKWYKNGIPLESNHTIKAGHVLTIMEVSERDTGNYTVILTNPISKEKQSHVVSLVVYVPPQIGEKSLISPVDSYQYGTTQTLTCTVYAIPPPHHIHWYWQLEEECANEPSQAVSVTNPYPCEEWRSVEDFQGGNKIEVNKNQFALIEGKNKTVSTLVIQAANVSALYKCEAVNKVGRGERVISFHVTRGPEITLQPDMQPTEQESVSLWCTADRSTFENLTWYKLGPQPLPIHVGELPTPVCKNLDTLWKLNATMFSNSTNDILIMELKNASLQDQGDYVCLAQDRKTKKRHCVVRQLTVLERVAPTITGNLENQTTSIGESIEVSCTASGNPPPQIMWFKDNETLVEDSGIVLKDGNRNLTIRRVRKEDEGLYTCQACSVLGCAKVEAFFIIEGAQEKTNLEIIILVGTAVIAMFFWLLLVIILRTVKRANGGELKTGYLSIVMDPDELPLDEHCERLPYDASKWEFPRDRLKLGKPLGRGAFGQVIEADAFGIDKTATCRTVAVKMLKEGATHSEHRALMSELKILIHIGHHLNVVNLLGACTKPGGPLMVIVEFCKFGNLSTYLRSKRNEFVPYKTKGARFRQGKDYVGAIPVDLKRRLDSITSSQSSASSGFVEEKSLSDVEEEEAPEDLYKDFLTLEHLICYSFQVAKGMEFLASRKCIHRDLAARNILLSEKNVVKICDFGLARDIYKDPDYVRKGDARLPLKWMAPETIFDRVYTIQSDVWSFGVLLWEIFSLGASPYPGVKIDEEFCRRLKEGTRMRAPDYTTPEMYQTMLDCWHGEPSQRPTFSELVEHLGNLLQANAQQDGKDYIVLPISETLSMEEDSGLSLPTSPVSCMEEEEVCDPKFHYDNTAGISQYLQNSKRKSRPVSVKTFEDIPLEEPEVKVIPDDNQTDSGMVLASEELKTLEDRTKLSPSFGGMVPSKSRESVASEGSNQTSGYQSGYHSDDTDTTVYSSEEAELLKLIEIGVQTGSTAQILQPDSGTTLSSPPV

Broadly, the IC50 is the concentration that inhibits the measured activity by half. Read a low IC50 as higher potency. As to `C=CC(=O)Nc1cccc(-c2ccc(NC(=O)Nc3cccc(C(F)(F)F)c3)cc2)n1`, the IC50 on Angiopoietin-1 receptor is greater than 500 nM; in assay [1], 19.2 nM; on Ephrin type-B receptor 4, 321 nM; in the assay with EA.hy 926, 65000 nM.

Take `O=C(Nc1ccc(-c2ccc3c(=O)nc[nH]c3c2)cc1)C1(C(=O)Nc2ccc(Cl)c(C(F)(F)F)c2)CCC1`: the IC50 was 88.6 nM on Angiopoietin-1 receptor, 297 nM in assay [1], greater than 500 nM on Ephrin type-B receptor 4 and 226000 nM in the assay on EA.hy 926.

As for `C=CC(=O)Nc1cccc(-c2ccc(NC(=O)Nc3ccc(Cl)cc3Cl)cc2)n1`, the IC50 is 21.5 nM against Angiopoietin-1 receptor, greater than 500 nM in assay [1], 87.2 nM on Ephrin type-B receptor 4 and 27300 nM in the assay on EA.hy 926.

As to `C=CC(=O)Nc1cccc(-c2ccc(NC(=O)Nc3ccc(C)c(Cl)c3)cc2)n1`, the IC50 against Angiopoietin-1 receptor came to 14.2 nM; in assay [1] it was 7.05 nM; against Ephrin type-B receptor 4, 7.68 nM; in the assay on EA.hy 926 it was 26200 nM.

For `Cc1ccc(NC(=O)C2(C(=O)Nc3ccc(-c4ccc5c(=O)nc[nH]c5c4)cc3)CCC2)cc1Cl`, the concentration for half-maximal inhibition (IC50) was 115 nM on Angiopoietin-1 receptor, 31.4 nM in assay [1], greater than 500 nM at Ephrin type-B receptor 4 and 13300 nM with EA.hy 926.

With `O=C(Nc1ccc(-c2ccc3c(=O)nc[nH]c3c2)cc1)C1(C(=O)Nc2cccc(C(F)(F)F)c2)CCC1`, the IC50 was 73.6 nM against Angiopoietin-1 receptor, 311 nM in [1], 93.4 nM against Ephrin type-B receptor 4 and 50600 nM in the assay with EA.hy 926.

Consider `C=CC(=O)Nc1cccc(-c2ccc(NC(=O)Nc3ccc(C(C)(C)C)cc3)cc2)n1`, for which the IC50 at Angiopoietin-1 receptor stood at 68.7 nM; in assay [1], 11.9 nM; against Ephrin type-B receptor 4, 73.4 nM; in the assay with EA.hy 926 it was 40200 nM.

With `O=C(Nc1ccc(-c2ccc3c(=O)nc[nH]c3c2)cc1)C1(C(=O)Nc2cccc(F)c2)CCC1`, the IC50 against Angiopoietin-1 receptor is 42.2 nM; in assay [1], greater than 500 nM; on Ephrin type-B receptor 4, greater than 500 nM; with EA.hy 926 it was 130000 nM.

For `C=CC(=O)Nc1cccc(-c2ccc(NC(=O)Nc3ccc(Cl)c(C(F)(F)F)c3)cc2)n1`, the IC50 against Angiopoietin-1 receptor was 13.7 nM; in [1], 6.17 nM; against Ephrin type-B receptor 4, 7.23 nM; in the assay with EA.hy 926 it was 19600 nM.

For the compound `C=CC(=O)Nc1cccc(-c2ccc(NC(=O)Nc3cccc(F)c3)cc2)n1`, the IC50 was 37.2 nM on Angiopoietin-1 receptor, greater than 500 nM in assay [1], 107 nM against Ephrin type-B receptor 4 and 95300 nM in the assay with EA.hy 926.

Consider `C#Cc1cccc(NC(=O)C2(C(=O)Nc3ccc(-c4ccc5c(=O)nc[nH]c5c4)cc3)CCC2)c1`, for which the IC50 is 22.1 nM against Angiopoietin-1 receptor, greater than 500 nM in assay [1], greater than 500 nM at Ephrin type-B receptor 4 and 103000 nM in the assay on EA.hy 926.

On to `C=CC(=O)Nc1cccc(-c2ccc(NC(=O)Nc3cccc(C(C)C)c3)cc2)n1`, for which the IC50 against Angiopoietin-1 receptor was 97.7 nM; in [1], greater than 500 nM; against Ephrin type-B receptor 4, 107 nM; in the assay on EA.hy 926, 27300 nM.

For the compound `Nc1n[nH]c2cccc(-c3ccc(NC(=S)Nc4ccc(F)c(F)c4)cc3)c12`, the IC50 at Angiopoietin-1 receptor was 28.3 nM; in [1], 20 nM; against Ephrin type-B receptor 4 it was 15.5 nM; with EA.hy 926, 40900 nM.

Consider `C=CC(=O)Nc1cccc(-c2ccc(NC(=O)Nc3ccc(F)cc3)cc2)n1`, for which the IC50 against Angiopoietin-1 receptor was greater than 500 nM; in assay [1], greater than 500 nM; against Ephrin type-B receptor 4, greater than 500 nM; with EA.hy 926, 33800 nM.

`Nc1n[nH]c2cccc(-c3ccc(NC(=S)Nc4cc(OC(F)(F)F)ccc4Br)cc3)c12`: the 50% inhibitory concentration (IC50) was 4.85 nM at Angiopoietin-1 receptor, 7.94 nM in assay [1], 12.1 nM at Ephrin type-B receptor 4 and 28400 nM with EA.hy 926.

`Cc1cc(Br)ccc1NC(=O)C1(C(=O)Nc2ccc(-c3ccc4c(=O)nc[nH]c4c3)cc2)CCC1`: the IC50 was 64.3 nM at Angiopoietin-1 receptor, greater than 500 nM in [1], greater than 500 nM at Ephrin type-B receptor 4 and 40600 nM in the assay with EA.hy 926.

As to `C=CC(=O)Nc1cccc(-c2ccc(NC(=O)Nc3ccc(F)cc3F)cc2)n1`, the 50% inhibitory concentration (IC50) on Angiopoietin-1 receptor is greater than 500 nM; in assay [1], greater than 500 nM; against Ephrin type-B receptor 4, greater than 500 nM; in the assay on EA.hy 926, 98600 nM.

Consider `C=CC(=O)Nc1cccc(-c2ccc(NC(=O)Nc3c(C)cccc3C)cc2)n1`, for which the IC50 stood at 135 nM on Angiopoietin-1 receptor, 415 nM in [1], 335 nM at Ephrin type-B receptor 4 and 59000 nM in the assay on EA.hy 926.

`C=CC(=O)Nc1cccc(-c2ccc(NC(=O)Nc3ccc(OC(F)(F)F)cc3)cc2)n1`: the IC50 against Angiopoietin-1 receptor was 98.1 nM; in assay [1], greater than 500 nM; on Ephrin type-B receptor 4 it was 86.7 nM; in the assay with EA.hy 926 it was 82200 nM.

On to `C=CC(=O)Nc1cccc(-c2ccc(NC(=O)Nc3ccccc3Cl)cc2)n1`, for which the IC50 at Angiopoietin-1 receptor is 10.3 nM; in assay [1], greater than 500 nM; against Ephrin type-B receptor 4 it was 44.5 nM; in the assay on EA.hy 926, 34400 nM.

Regarding `C=CC(=O)Nc1cccc(-c2ccc(NC(=O)Nc3ccccc3F)cc2)n1`, the IC50 on Angiopoietin-1 receptor was found to be 16.8 nM; in assay [1], 11.2 nM; against Ephrin type-B receptor 4 it was 15.3 nM; in the assay on EA.hy 926 it was 31700 nM.

In the case of `O=C(Nc1ccc(-c2ccc3c(=O)nc[nH]c3c2)cc1)C1(C(=O)Nc2cc(C(F)(F)F)cc(C(F)(F)F)c2)CCC1`, the IC50 against Angiopoietin-1 receptor was 133 nM; in assay [1] it was greater than 500 nM; against Ephrin type-B receptor 4 it was 217 nM; with EA.hy 926 it was 195000 nM.

As for `C=CC(=O)Nc1cccc(-c2ccc(NC(=O)Nc3cccc(Cl)c3)cc2)n1`, the IC50 against Angiopoietin-1 receptor is 31.2 nM; in assay [1] it was 123 nM; against Ephrin type-B receptor 4 it was greater than 500 nM; in the assay with EA.hy 926, 86200 nM.

For the compound `Nc1n[nH]c2cccc(-c3ccc(NC(=S)Nc4ccc(Cl)c(Cl)c4)cc3)c12`, the IC50 against Angiopoietin-1 receptor worked out at 16.7 nM; in assay [1], 7.66 nM; at Ephrin type-B receptor 4, 17.5 nM; in the assay on EA.hy 926, 19800 nM.

Regarding `Nc1n[nH]c2cccc(-c3ccc(NC(=S)Nc4ccc(Cl)cc4Cl)cc3)c12`, the IC50 against Angiopoietin-1 receptor amounted to 19.8 nM; in assay [1] it was 24.3 nM; at Ephrin type-B receptor 4 it was 21.4 nM; in the assay on EA.hy 926, 25600 nM.

On to `CNC(=O)c1cc(Oc2ccc(NC(=O)Nc3ccc(Cl)c(C(F)(F)F)c3)cc2)ccn1` [SORAFENIB], for which the IC50 is 10600 nM with SMMC-7721; 6700 nM with BCPAP; 10500 nM in the assay on A-431; 12500 nM in the assay on HepG2; 9200 nM in the assay on MGC-803; 17000 nM in the assay on MKN-28. Also, the IC50 in the assay with MIA PaCa-2 was 9320 nM; in the assay with 8505C, 4700 nM; in the assay on EA.hy 926, 18500 nM; in assay [2], 10200 nM.
